Results reported in paper PMC3914206.

Experiments:
Experiment in all cases: KiNativ chemical proteomics profiling in HeLa and PC3 cell lysates
Type in all cases: binding
[1] = target: T1, selected panels of kinases in HeLa and PC3 cell lysates (Homo sapiens, UniProt O15530); details: 10 uM; PDK1; peptide EYAIkILEK; proteome PC3; labeling site Lys1
T1 construct: endogenous in cells; host or cells: HeLa and PC3 cell lysates

[2] = target: T2, selected panels of kinases in HeLa and PC3 cell lysates (Homo sapiens, UniProt O94921); details: 10 uM; PFTAIRE1; peptide LVALkVIR; proteome PC3; labeling site Lys1
T2 construct: endogenous in cells; host or cells: HeLa and PC3 cell lysates

[3] = target: T3, selected panels of kinases in HeLa and PC3 cell lysates (Homo sapiens, UniProt P07948); details: 10 uM; proteome HEL; peptide VAVk[…]; labeling site Lys1
T3 construct: endogenous in cells; host or cells: HeLa and PC3 cell lysates

[4] = target: T4, selected panels of kinases in HeLa and PC3 cell lysates (Homo sapiens, UniProt P08581); details: 10 uM, proteome PC3, labeling site Activation Loop
T4 construct: endogenous in cells; host or cells: HeLa and PC3 cell lysates
T4 sequence (P08581 25-1390): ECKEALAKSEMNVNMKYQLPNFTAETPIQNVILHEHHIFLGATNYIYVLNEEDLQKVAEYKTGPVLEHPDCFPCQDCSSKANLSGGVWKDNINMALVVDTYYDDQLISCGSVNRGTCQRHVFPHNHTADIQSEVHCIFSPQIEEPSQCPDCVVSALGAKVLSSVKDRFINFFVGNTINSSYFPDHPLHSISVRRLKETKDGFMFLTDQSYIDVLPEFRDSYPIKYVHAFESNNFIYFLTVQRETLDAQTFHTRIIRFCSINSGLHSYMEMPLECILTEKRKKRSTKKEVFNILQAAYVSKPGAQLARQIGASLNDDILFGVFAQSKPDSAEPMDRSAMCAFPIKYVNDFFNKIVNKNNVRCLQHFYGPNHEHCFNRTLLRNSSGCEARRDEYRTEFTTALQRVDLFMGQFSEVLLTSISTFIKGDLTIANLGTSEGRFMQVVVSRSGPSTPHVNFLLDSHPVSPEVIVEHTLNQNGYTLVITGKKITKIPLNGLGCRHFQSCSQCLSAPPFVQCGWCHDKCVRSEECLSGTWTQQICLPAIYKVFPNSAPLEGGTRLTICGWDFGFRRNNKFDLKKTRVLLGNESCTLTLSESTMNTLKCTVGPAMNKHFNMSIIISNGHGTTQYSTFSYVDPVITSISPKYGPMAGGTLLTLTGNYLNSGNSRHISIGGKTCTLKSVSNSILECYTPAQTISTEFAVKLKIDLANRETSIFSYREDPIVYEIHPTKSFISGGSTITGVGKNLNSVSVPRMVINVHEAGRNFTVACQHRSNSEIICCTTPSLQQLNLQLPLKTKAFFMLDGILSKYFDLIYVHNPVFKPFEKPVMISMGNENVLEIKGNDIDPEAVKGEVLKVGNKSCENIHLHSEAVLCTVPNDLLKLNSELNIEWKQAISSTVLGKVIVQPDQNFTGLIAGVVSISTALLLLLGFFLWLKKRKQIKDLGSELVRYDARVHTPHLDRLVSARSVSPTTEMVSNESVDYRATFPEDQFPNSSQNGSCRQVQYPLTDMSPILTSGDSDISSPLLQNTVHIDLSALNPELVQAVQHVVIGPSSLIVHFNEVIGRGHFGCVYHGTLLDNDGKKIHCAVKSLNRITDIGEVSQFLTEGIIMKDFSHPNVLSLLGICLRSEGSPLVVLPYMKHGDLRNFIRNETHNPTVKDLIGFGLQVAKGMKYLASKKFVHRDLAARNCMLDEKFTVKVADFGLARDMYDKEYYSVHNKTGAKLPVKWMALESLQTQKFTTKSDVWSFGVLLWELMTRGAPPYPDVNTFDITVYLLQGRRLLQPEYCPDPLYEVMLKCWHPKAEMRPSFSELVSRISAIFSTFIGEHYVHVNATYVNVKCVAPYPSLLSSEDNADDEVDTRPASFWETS

[5] = target: T5, selected panels of kinases in HeLa and PC3 cell lysates (Homo sapiens, UniProt P23458); details: 10 uM, proteome HEL; for % Inhibiton, JAK1 domain1: peptide […]kNLLLAR, labeling site Other
T5 construct: endogenous in cells; host or cells: HeLa and PC3 cell lysates
T5 sequence (P23458 whole entry, the tested form may be a part): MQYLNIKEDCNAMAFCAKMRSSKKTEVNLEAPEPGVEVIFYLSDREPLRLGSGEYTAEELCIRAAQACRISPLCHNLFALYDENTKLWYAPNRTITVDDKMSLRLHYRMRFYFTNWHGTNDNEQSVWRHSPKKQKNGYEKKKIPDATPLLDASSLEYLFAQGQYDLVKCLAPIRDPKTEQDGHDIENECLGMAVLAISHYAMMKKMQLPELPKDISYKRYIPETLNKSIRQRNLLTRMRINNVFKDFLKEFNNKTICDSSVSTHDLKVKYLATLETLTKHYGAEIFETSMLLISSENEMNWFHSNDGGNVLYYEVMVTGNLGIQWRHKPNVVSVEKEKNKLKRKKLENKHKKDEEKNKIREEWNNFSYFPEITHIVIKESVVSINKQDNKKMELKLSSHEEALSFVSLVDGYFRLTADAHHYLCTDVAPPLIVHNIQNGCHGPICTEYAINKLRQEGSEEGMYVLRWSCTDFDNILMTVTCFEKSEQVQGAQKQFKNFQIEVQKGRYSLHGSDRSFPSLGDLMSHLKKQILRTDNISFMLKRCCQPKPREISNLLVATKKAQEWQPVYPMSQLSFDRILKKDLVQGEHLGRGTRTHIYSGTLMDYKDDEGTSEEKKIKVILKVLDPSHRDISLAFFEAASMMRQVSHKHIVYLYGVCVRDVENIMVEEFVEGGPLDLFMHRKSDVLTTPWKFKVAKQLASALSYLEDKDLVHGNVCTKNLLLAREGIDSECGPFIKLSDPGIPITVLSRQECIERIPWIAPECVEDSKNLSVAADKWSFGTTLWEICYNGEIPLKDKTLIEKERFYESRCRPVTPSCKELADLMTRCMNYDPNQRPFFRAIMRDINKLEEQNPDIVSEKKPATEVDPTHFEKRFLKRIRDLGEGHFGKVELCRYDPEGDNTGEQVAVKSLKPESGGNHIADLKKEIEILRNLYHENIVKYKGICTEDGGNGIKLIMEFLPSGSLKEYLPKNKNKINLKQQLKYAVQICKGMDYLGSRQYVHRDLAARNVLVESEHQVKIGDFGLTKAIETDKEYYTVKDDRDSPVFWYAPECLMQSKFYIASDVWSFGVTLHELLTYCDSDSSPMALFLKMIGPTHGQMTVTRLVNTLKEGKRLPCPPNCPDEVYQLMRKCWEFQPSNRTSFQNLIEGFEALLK

[6] = target: T6, selected panels of kinases in HeLa and PC3 cell lysates (Homo sapiens, UniProt P30291); details: 10 uM; Wee1; peptide […]k[…]; proteome HEL; labeling site Lys2
T6 construct: endogenous in cells; host or cells: HeLa and PC3 cell lysates

[7] = target: T7, selected panels of kinases in HeLa and PC3 cell lysates (Homo sapiens, UniProt P42338); details: 10 uM; PIK3CB; peptide […]k[…]; proteome PC3; labeling site ATP
T7 construct: endogenous in cells; host or cells: HeLa and PC3 cell lysates

[8] = target: T8, selected panels of kinases in HeLa and PC3 cell lysates (Homo sapiens, UniProt P49841); details: 10 uM; proteome PC3; peptide DIk[…]; labeling site Lys2
T8 construct: endogenous in cells; host or cells: HeLa and PC3 cell lysates

[9] = target: T9, selected panels of kinases in HeLa and PC3 cell lysates (Homo sapiens, UniProt P51617); details: 10 uM; proteome PC3; peptide […]k[…]; labeling site Lys2
T9 construct: endogenous in cells; host or cells: HeLa and PC3 cell lysates

[10] = target: T10, selected panels of kinases in HeLa and PC3 cell lysates (Homo sapiens, UniProt Q05397); details: 10 uM; proteome PC3; peptide […]kTCK; labeling site Lys1
T10 construct: endogenous in cells; host or cells: HeLa and PC3 cell lysates

[11] = target: T11, selected panels of kinases in HeLa and PC3 cell lysates (Homo sapiens, UniProt Q13164); details: for ERK5 target occupancy (KiNativ): 10 μM, HeLa and PC3 cell lysates, only ERK5 exceeded this level; for % Inhibiton, Erk5: 10 uM, proteome HEL, peptide DLk[…], labeling site Lys2
T11 construct: endogenous in cells; host or cells: HeLa and PC3 cell lysates
T11 sequence (Q13164 whole entry): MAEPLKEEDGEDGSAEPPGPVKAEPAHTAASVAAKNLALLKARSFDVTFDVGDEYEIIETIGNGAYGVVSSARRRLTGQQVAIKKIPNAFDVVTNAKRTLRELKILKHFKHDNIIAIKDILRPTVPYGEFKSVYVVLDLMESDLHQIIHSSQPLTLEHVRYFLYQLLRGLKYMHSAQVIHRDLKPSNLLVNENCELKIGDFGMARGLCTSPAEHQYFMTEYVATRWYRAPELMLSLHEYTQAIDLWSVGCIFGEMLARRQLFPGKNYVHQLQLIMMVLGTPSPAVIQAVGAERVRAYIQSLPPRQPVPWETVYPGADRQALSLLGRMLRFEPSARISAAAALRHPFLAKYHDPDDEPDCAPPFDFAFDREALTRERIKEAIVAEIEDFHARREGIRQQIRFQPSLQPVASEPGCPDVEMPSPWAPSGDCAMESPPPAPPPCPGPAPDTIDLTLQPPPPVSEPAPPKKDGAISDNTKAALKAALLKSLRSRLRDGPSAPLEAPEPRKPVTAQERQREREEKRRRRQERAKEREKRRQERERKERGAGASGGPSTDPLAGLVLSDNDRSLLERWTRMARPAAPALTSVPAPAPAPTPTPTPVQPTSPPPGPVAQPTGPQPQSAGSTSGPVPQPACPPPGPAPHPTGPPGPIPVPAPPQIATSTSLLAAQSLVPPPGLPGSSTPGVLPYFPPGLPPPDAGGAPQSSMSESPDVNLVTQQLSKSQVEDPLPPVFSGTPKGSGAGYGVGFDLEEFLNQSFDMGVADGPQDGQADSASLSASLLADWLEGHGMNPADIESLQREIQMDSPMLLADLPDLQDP

[12] = target: T12, selected panels of kinases in HeLa and PC3 cell lysates (Homo sapiens, UniProt Q13188); details: 10 uM, peptide […]k[…], labeling site Lys1
T12 construct: endogenous in cells; host or cells: HeLa and PC3 cell lysates
T12 sequence (Q13188 1-491): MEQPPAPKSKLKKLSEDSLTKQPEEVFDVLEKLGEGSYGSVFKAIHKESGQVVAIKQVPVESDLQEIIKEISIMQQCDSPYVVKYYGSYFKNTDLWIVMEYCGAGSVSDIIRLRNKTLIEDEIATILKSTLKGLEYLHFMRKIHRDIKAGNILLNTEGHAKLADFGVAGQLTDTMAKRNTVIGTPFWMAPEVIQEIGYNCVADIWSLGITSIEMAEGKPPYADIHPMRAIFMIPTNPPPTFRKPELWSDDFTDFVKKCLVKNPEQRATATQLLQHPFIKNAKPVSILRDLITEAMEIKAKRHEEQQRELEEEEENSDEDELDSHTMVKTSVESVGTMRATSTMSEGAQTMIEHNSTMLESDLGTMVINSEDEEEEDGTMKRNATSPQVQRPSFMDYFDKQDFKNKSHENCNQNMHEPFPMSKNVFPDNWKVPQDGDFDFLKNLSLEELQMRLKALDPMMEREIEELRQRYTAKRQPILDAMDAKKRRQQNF

[13] = target: T13, selected panels of kinases in HeLa and PC3 cell lysates (Homo sapiens, UniProt Q16512); details: 10 uM; PKN1; peptide GHFGk[…]; proteome HEL; labeling site Lys1
T13 construct: endogenous in cells; host or cells: HeLa and PC3 cell lysates

[14] = target: T14, selected panels of kinases in HeLa and PC3 cell lysates (Homo sapiens, UniProt Q16644); details: 10 uM; proteome HEL; peptide […]k[…]; labeling site ATP Loop
T14 construct: endogenous in cells; host or cells: HeLa and PC3 cell lysates

[15] = target: T15, selected panels of kinases in HeLa and PC3 cell lysates (Homo sapiens, UniProt Q8IVH8); details: 10 uM; proteome PC3; peptide […]kVIK; labeling site Lys1
T15 construct: endogenous in cells; host or cells: HeLa and PC3 cell lysates

[16] = target: T16, selected panels of kinases in HeLa and PC3 cell lysates (Homo sapiens, UniProt Q8NEB9); details: 10 uM; PIK3C3; peptide […]kHGDDLR; proteome HEL; labeling site ATP
T16 construct: endogenous in cells; host or cells: HeLa and PC3 cell lysates

[17] = target: T17, selected panels of kinases in HeLa and PC3 cell lysates (Homo sapiens, UniProt Q92918); details: 10 uM; proteome HEL; peptide […]kMVK; labeling site Lys1
T17 construct: endogenous in cells; host or cells: HeLa and PC3 cell lysates

[18] = target: T18, selected panels of kinases in HeLa and PC3 cell lysates (Homo sapiens, UniProt Q96PY6); details: 10 uM; proteome HEL; peptide DIkSQNIFLTK; labeling site Lys2
T18 construct: endogenous in cells; host or cells: HeLa and PC3 cell lysates

[19] = target: T19, selected panels of kinases in HeLa and PC3 cell lysates (Homo sapiens, UniProt Q9NRM7); details: 10 uM; proteome HEL; peptide VDTHALYAMkTLR; labeling site Lys1
T19 construct: endogenous in cells; host or cells: HeLa and PC3 cell lysates

[20] = target: T20, selected panels of kinases in HeLa and PC3 cell lysates (Homo sapiens, UniProt Q9P2K8); details: 10 uM
T20 construct: endogenous in cells; host or cells: HeLa and PC3 cell lysates
T20 sequence (Q9P2K8 whole entry): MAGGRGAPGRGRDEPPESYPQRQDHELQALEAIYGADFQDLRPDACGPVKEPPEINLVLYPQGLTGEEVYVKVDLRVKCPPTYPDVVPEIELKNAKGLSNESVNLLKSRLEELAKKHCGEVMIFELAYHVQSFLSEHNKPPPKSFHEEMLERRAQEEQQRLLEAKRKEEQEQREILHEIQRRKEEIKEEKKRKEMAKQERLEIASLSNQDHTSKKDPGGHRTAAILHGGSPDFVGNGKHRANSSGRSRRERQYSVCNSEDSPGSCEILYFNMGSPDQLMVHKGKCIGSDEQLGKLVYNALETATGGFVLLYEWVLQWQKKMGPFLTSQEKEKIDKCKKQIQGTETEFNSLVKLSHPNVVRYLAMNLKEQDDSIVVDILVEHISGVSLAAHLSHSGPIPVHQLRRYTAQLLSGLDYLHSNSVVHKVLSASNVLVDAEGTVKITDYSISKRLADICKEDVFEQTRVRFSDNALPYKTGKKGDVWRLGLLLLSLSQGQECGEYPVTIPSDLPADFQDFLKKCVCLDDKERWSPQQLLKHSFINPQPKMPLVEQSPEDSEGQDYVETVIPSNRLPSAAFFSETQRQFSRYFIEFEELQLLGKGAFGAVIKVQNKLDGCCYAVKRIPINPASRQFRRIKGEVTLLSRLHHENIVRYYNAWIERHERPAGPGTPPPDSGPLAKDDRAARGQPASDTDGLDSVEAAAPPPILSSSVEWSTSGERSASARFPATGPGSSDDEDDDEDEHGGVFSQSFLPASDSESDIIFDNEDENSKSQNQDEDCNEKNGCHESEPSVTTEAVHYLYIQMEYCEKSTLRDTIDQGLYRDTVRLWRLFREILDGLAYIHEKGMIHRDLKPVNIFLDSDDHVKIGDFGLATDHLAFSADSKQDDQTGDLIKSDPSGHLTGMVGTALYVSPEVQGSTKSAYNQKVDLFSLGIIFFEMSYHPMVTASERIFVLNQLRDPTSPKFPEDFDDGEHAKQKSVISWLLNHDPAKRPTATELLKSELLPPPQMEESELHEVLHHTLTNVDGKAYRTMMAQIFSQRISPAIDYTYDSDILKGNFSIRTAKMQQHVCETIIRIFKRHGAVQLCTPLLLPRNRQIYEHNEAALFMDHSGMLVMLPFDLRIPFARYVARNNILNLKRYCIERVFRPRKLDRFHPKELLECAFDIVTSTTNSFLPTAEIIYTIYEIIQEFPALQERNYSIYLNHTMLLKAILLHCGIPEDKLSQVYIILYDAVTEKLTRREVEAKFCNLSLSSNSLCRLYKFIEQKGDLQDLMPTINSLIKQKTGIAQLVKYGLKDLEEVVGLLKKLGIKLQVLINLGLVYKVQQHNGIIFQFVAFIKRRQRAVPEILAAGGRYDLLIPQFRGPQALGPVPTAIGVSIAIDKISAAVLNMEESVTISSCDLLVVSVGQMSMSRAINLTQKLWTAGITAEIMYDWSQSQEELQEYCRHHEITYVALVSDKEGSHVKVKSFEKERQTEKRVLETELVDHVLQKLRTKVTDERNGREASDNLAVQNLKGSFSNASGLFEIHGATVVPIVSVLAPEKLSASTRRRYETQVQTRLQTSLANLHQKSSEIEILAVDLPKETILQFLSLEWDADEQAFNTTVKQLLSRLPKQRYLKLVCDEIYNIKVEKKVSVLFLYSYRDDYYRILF

[21] = target: T21, selected panels of kinases in HeLa and PC3 cell lysates (Homo sapiens, UniProt Q9Y572); details: 10 uM; RIPK3; peptide DLk[…]; proteome HEL; labeling site Lys2
T21 construct: endogenous in cells; host or cells: HeLa and PC3 cell lysates

[22] = peptide IGDFGLTk[…], labeling site Activation Loop
[23] = peptide […]k[…], labeling site Lys1
[24] = proteome HEL, peptide LDGCCYAVkR, labeling site Lys1
[25] = proteome PC3, peptide DLk[…], labeling site Lys2
[26] = proteome PC3, peptide LDGCCYAVkR, labeling site Lys1

Row | SMILES | % Inhibition PDK1 [1] | % Inhibition PFTAIRE1 [2] | % Inhibiton, LYN [3] | % Inhibiton, MET ([4]; peptide DMYDkEYYSVHNK) | % Inhibiton, MET ([4]; peptide […]kTGAK) | % Inhibiton, JAK1 domain2 [5, 22] | % Inhibiton, JAK1 domain1 [5] | % Inhibiton, JAK1 domain2 [5, 23] | % Inhibition Wee1 [6] | % Inhibition PIK3CB [7] | % Inhibiton, GSK3B [8] | % Inhibiton, IRAK1 [9] | % Inhibiton, FAK [10] | ERK5 target occupancy (KiNativ) [11] | % Inhibiton, Erk5 [11] | % Inhibiton, MST2 ([12]; proteome HEL) | % Inhibiton, MST2 ([12]; proteome PC3) | % Inhibition PKN1 [13] | % Inhibiton, MAPKAPK3 [14] | % Inhibiton, KHS2 [15] | also measured
1 | COc1cc(C(=O)N2CCC(N3CCN(C)CC3)CC2)ccc1Nc1ncc2c(n1)N(C1CCCC1)c1ccccc1C(=O)N2C [Compound 25, 11-cyclopentyl-2-((2-methoxy-4-(4-(4-methylpiperazin-1-yl)piperidine-1-carbonyl)phenyl)amino)-5-methyl-5H-benzo[e]pyrimido[5,4-b][1,4]diazepin-6(11H)-one] | -5.4% | -9.7% | -2.9% | -15.9% | 4.8% | 5.1% | 3.2% | 4.8% | 11.1% | 0.8% | 4.6% | 1.2% | 79.4% | higher than 90% | >95% | -4.5% | -9.2% | -2.7% | 1.8% | -4.9% | % Inhibition PIK3C3 [16]: 4.0%; % Inhibiton, HPK1 [17]: -8.3%; % Inhibiton, NEK1 [18]: 14.7%; % Inhibiton, LATS2 [19]: -4.2%; % Inhibiton, GCN2 [20, 24]: 4.5%; % Inhibiton, GCN2 [20, 25]: -1.6%; % Inhibiton, GCN2 [20, 26]: -1.5%; % Inhibition RIPK3 [21]: -1.3%
2 | CCOc1cc(C(=O)N2CCC(N3CCN(C)CC3)CC2)ccc1Nc1ncc2c(n1)N(C1CCCC1)c1ccccc1C(=O)N2C [Compound 26] | 0% | -14.3% | 26.5% | -12.7% | 9.2% | 6.3% | 24.2% | 32.1% | 2.9% | -124.1% | -3% | -2.9% | 48.4% | higher than 90% | 94.3% | 10.8% | -9.4% | 15.3% | 20.8% | -3.3% | % Inhibition PIK3C3 [16]: 8.1%; % Inhibiton, HPK1 [17]: -10.9%; % Inhibiton, NEK1 [18]: 3%; % Inhibiton, LATS2 [19]: 3.2%; % Inhibiton, GCN2 [20, 24]: -6.3%; % Inhibiton, GCN2 [20, 25]: 1.6%; % Inhibiton, GCN2 [20, 26]: 6.4%; % Inhibition RIPK3 [21]: -2.4%
